From patent US20070265164A1, “Active Substances for Increasing Pathogenic Defense in Plants and Methods for the Detection Thereof” (Bayer Cropscience GmbH, priority 2004, published 2007) come the findings set out here.

Assay type in all cases: in vivo
What all share (parameters): fold induction: dose or concentration left out as unconfirmed

Assay [1] concerns Contig3097_at, Allene oxide synthase. Nature of the assay: GEP, barley DNA chip, probe set 1.3. The note with it: Hordeum vulgare, topical, read-out: Expression value, 1.3 Contig3097_at; for fold induction: barley leaves 6 h after spray application, rates of Table 1 (S7 500), median induction factor vs control. How it is done:
(§1) Barley plants (cv. Baronesse) were grown in compost-filled pots (diameter: 10 cm) for 10 days in a controlled-environment cabinet under defined light, humidity and temperature conditions (white light, 70% atmospheric humidity, 24° C.). At the time of spray application, the seedlings were approximately 15 cm in size. The test substances selected in this example were molecules which differ markedly in their structure and which have a well documented pronounced safener effect, and other molecules which are known from the literature to have an effect on plant stress and pathogen tolerance (Table 1). The substances were prepared as stock solutions in DMSO (dimethyl sulfoxide) at c=10 mg/ml). This was used for preparing dilutions in water supplemented with 0.2% Agrotin (comprises polyvinyl alcohol, silicones, polysaccharides and pH regulators, manufacturer: Bayer CropScience AG, Monheim, Germany), as wetter, to give the application rates shown in the table. The amount of liquid for the spray application was 800 μl per pot, corresponding to 800 l/ha. For each 800 μl of spray mixture, 16 μl of EC premix: diacetone alcohol=1:6 were additionally added as formulation auxiliaries. The substances listed in Table 1 were applied to the leaves by means of a pneumatic spray pistol. Each substance was sprayed as 2 dosages, and all experiments were carried out as replicates (2 pots per substance). Sprayings with blank formulation without active ingredient were carried out as controls. After 6 hours, the leaves were harvested, frozen in liquid nitrogen and stored at −80° C. until further use. The labeled RNA probes for the DNA chip hybridization were prepared as described in the protocols (Expression Analysis, Technical Manual) from Affymetrix (Affymetrix Inc., 3380 Central Expressway, Santa Clara, Calif., USA). First, total RNA was isolated from in each case 500 mg of the harvested leaves. In each case 10 μg of total RNA was used for the first-strand and second-strand cDNA synthesis. The cDNA was amplified with T7 polymerase and simultaneously labeled with biotin-UTP. In each case, 20 μg of this biotinylated cDNA was employed for the hybridization of the barley genome array (Gene Chip Barleyl, order No.: 511012) from Affymetrix. This DNA microarray comprises DNA sequences of 22 840 genes which are composed of a total of 400 000 EST sequences. Thereafter, the DNA microarrays were washed in the Affymetrix Fluidics Station, stained with streptavidin/phycoerythrin (Molecular Probes, P/N S-866) and scanned with the matching Agilent Laser Scanner (Agilent Gene Array Scanner). The fluorescent data obtained were analyzed with the software Microarray Suite 5 from Affymetrix. After the quality had been checked, all DNA chip analyses were stored in a database. To determine the relative expression values for genes (induction factors, repression factors), test and control chips were compared with each other, and the scoring function set by the Affymetrix software was used as the basis. The 2 biological replications of one experiment were compared in each case with 2 control chips (blank formulation), and the 4 expression values obtained for each gene were used for calculating the median. These medians are shown in the results tables as induction factors. Similarity comparisons of expression profiles from different experiments and cluster analyses were carried out using the software GeneMaths 1.5 from Applied Maths (Applied Maths, Keistraat 120, 9830 Sint-Martens-Latem, Belgium).
(§2) Gene groups from specific metabolic pathways and signal transduction chains were put together by key word search in the annotations, of the genes, which were also provided by Affymetrix, and by Blast analyses (homology comparisons) of the DNA target sequences, i.e. of the positive sequence (identified on the basis of a modified expression profile) identified on the DNA chip, using gene sequences from other organisms, preferably plant organisms, with characterized functions. […]

Assay [2] concerns Contig 4986_at, Allene oxide cyclase. As to the kind of experiment: GEP, barley DNA chip, probe set 1.5. The following applies: Hordeum vulgare, topical, read-out: Expression value, 1.5 Contig 4986_at; for fold induction: barley leaves 6 h after spray application, rates of Table 1 (S7 500), median induction factor vs control. Here is the method:
as §1, §2

Assay [3] concerns Contig9556_at, 12-oxophytodienoate reductase 3. As to the kind of experiment: GEP, barley DNA chip, probe set 1.8. The note with it: Hordeum vulgare, topical, read-out: Expression value, 1.8 Contig9556_at; for fold induction: barley leaves 6 h after spray application, rates of Table 1 (S7 500), median induction factor vs control. How it is done:
as §1, §2

Assay [4] relates to Contig15_a_at, GDSL-motif lipase/hydrolase-like protein. Nature of the assay: GEP, barley DNA chip, probe set 1.9. The note with it: Hordeum vulgare, topical, read-out: Expression value, 1.9 Contig15_a_at; for fold induction: barley leaves 6 h after spray application, rates of Table 1 (S7 500), median induction factor vs control. Here is the method: as §1, §2
The subject of assay [5] is Contig12574_at, Putative lipoxygenase. Nature of the assay: GEP, barley DNA chip, probe set 1.11. The note with it: Hordeum vulgare, read-out: Expression value, 1.11 Contig12574_at; for fold induction: barley leaves 6 h after spray application, rates of Table 1 (S7 500), median induction factor vs control. How it is done: as §1, §2
In assay [6] the test system is Contig3096_s_at, Allene oxide synthase. As to the kind of experiment: GEP, barley DNA chip, probe set 1.16. The following applies: Hordeum vulgare, topical, read-out: Expression value, 1.16 Contig3096_s_at; for fold induction: barley leaves 6 h after spray application, rates of Table 1 (S7 500), median induction factor vs control. How it is done:
as §1, §2

The subject of assay [7] is Contig2326_s_at, 12-oxophytodienoic acid reductase. As to the kind of experiment: GEP, barley DNA chip, probe set 1.18. The following applies: Hordeum vulgare, topical, read-out: Expression value, 1.18 Contig2326_s_at; for fold induction: barley leaves 6 h after spray application, rates of Table 1 (S7 500), median induction factor vs control. Here is the method: as §1, §2

In assay [8] the test system is Contig2088_s_at, Bowman-Birk type trypsin inhibitor. Nature of the assay: GEP, barley DNA chip, probe set 2.1. The following applies: Hordeum vulgare, topical, read-out: Expression value, 2.1 Contig2088_s_at; for fold induction: barley leaves 6 h after spray application, rates of Table 1 (S7 500), median induction factor vs control. Here is the method: as §1, §2
For assay [9], the system named is HD07M22r_s_at, Proteinase-Inhibitor (pir S71555, barley). Nature of the assay: GEP, barley DNA chip, probe set 2.4. The following applies: Hordeum vulgare, topical, read-out: Expression value, 2.4 HD07M22r_s_at; for fold induction: barley leaves 6 h after spray application, rates of Table 1 (S7 500), median induction factor vs control. Here is the method: as §1, §2

The test system of assay [10] is Contig8905_at, Xytanase inhibitor protein. As to the kind of experiment: GEP, barley DNA chip, probe set 3.1. The following applies: Hordeum vulgare, topical, read-out: Expression value, 3.1 Contig8905_at; for fold induction: barley leaves 6 h after spray application, rates of Table 1 (S7 500), median induction factor vs control. Here is the method: as §1, §2
The test system of assay [11] is Contig5369_at, Pathogen-related protein. As to the kind of experiment: GEP, barley DNA chip, probe set 4.2. The following applies: Hordeum vulgare, topical, read-out: Expression value, 4.2 Contig5369_at; for fold induction: barley leaves 6 h after spray application, rates of Table 1 (S7 500), median induction factor vs control. How it is done:
as §1, §2

The subject of assay [12] is Contig5607_s_at, Pathogen-related protein (PirT06168). Nature of the assay: GEP, barley DNA chip, probe set 4.3. The note with it: Hordeum vulgare, topical, read-out: Expression value, 4.3 Contig5607_s_at; for fold induction: barley leaves 6 h after spray application, rates of Table 1 (S7 500), median induction factor vs control. How it is done: as §1, §2
For assay [13], the system named is Contig2992_s_at, Chitinase (EC 3.2.1.14). As to the kind of experiment: GEP, barley DNA chip, probe set 5.2. The note with it: Hordeum vulgare, topical, read-out: Expression value, 5.2 Contig2992_s_at; for fold induction: barley leaves 6 h after spray application, rates of Table 1 (S7 500), median induction factor vs control. How it is done: as §1, §2

Consider `CSC(=O)c1cccc2nnsc12` [S8, Acibenzolar-S-methyl], for which the fold induction turned out to be 2.11 in [1]; 1 in assay [2]; 1 in assay [3]; 1 in assay [4]; 2.11 in assay [5]; 2.68 in assay [6]. Moreover, the fold induction in assay [7] was found to be 1; in assay [8], 7.36; in [9] it was 1; in assay [10], 1; in [11], 1; in [12], 1. Moreover, the fold induction in assay [13] came to 1.
For `COC(=O)C1=NN(c2ccc(Cl)cc2Cl)C(C)(C(=O)OC)C1` (stereo not shown) [S1, Mefenpyr-dimethyl], the fold induction in [1] was determined as 1; in assay [2] it was 1; in assay [3], 1; in assay [4], 0.35; in assay [5], 0.5; in assay [6] it was 1. In addition, the fold induction was 2.31 in assay [7]; 1 in assay [8]; 6.32 in [9]; 3.1 in assay [10]; 2.35 in assay [11]; 18.6 in assay [12]. The fold induction in assay [13] was 6.5.
As for `CCOC(=O)C(Oc1ccc(Cl)c2cccnc12)C(=O)OCC` [S5], the fold induction in assay [1] is 1; in assay [2], 1; in [3], 1; in assay [4], 0.46; in [5], 1; in assay [6] it was 1. Also, the fold induction in assay [7] came out at 1; in [8], 1; in assay [9], 7.84; in assay [10], 3.01; in assay [11] it was 1; in [12] it was 8.75. In addition, the fold induction in [13] worked out at 3.12.
In the case of `O=C(O)c1cc(Cl)nc(Cl)c1` [S9], the fold induction at 150 g/ha in assay [1] (6 h), in assay [2] (6 h), in assay [3] (6 h), in assay [4] (6 h), in [5] (6 h) and in [6] (6 h) was 1 throughout. The fold induction at 150 g/ha came out at 1 in [7] (6 h); 2.36 in [8] (6 h); 1 in assay [9] (6 h); 2.53 in assay [10] (6 h); 1 in [11] (6 h); 1 in assay [12] (6 h). Further, the fold induction at 150 g/ha in [13] (6 h) stood at 2.14.
